Data: patent publication US6914045B2, “Glycopeptide antibiotics” (Wyeth Holdings Corporation, priority 2001, dated 2005)
≈ marks a conversion by molar mass, not a printed value.

Experiments:
Test in all cases: in vitro antibacterial evaluation, MIC by broth dilution
Assay type in all cases: cell-based
[1] = tested on: Enterococcus sp.; conditions: broth dilution, 18 hours at 35° C.
In short: (§1)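 Read-out: the lowest concentration at which the test strain fails to grow. Serial dilutions (64-0.06 μg/mL) in Muller-Hinton II […], 5×10^5 CFU/mL inoculum, NCCLS M7-A2 procedure.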

[2] = tested on: Streptococcus sp.; conditions: broth dilution, 18 hours at 35° C.
In short: as §1

[3] = tested on: Staphylococcus sp.; conditions: broth dilution, 18 hours at 35° C.; for MIC Staphylococcus aureus (GC 1131): strain GC 1131
In short: as §1

[4] = tested on: Escherichia coli
In short: as §1

**Q.** Which “MIC Enterococcus avium (GC 4558)” value ([1]; Enterococcus avium (GC 4558)) does the source give for `Cc1cc(C2OCC3OC(OC4C(CO)OC(Oc5ccc(CC6NC(=O)C(C(C)c7ccccc7)NC(=O)CNC(=O)C(CO)NC(=O)C(C(O)C7CNC(=N)N7C7OC(CO)C(O)C(O)C7O)NC(=O)C(C(O)C7CNC(=N)N7)NC6=O)cc5)C(O)C4O)C(O)C(O)C3O2)ccc1[N+](=O)[O-]` (stereo not drawn) [Example 151] here?
**A.** 32 µg/mL (≈ 22.2 µM)

**Q.** What about the “MIC Enterococcus faecalis (ATCC 29212)” value ([1]; Enterococcus faecalis (ATCC 29212)) of the same compound?
**A.** 32 µg/mL (≈ 22.2 µM)

**Q.** What about the “MIC Enterococcus faecalis (GC 2242)” value ([1]; Enterococcus faecalis (GC 2242)) of the same compound?
**A.** 16 µg/mL (≈ 11.1 µM)

**Q.** And the “MIC Enterococcus faecalis (GC 2691)” value ([1]; Enterococcus faecalis (GC 2691))?
**A.** 32 µg/mL (≈ 22.2 µM)

**Q.** And the “MIC Enterococcus faecalis (GC 3059)” value ([1]; Enterococcus faecalis (GC 3059))?
**A.** 32 µg/mL (≈ 22.2 µM)

**Q.** And the “MIC Enterococcus faecalis (GC 4552)” value ([1]; Enterococcus faecalis (GC 4552))?
**A.** 32 µg/mL (≈ 22.2 µM)

**Q.** What about the “MIC Enterococcus faecalis (GC 4553)” value ([1]; Enterococcus faecalis (GC 4553)) of the same compound?
**A.** 32 µg/mL (≈ 22.2 µM)

**Q.** What about the “MIC Enterococcus faecalis (GC 4554)” value ([1]; Enterococcus faecalis (GC 4554)) of the same compound?
**A.** 32 µg/mL (≈ 22.2 µM)

**Q.** And the “MIC Enterococcus faecalis (GC 6189)” value ([1]; Enterococcus faecalis (GC 6189))?
**A.** 64 µg/mL (≈ 44.4 µM)

**Q.** What about the “MIC Enterococcus faecium (GC 2243)” value ([1]; Enterococcus faecium (GC 2243)) of the same compound?
**A.** 32 µg/mL (≈ 22.2 µM)

**Q.** And the “MIC Enterococcus faecium (GC 4556)” value ([1]; Enterococcus faecium (GC 4556))?
**A.** 32 µg/mL (≈ 22.2 µM)

**Q.** And the “MIC Enterococcus faecium (GC 4557)” value ([1]; Enterococcus faecium (GC 4557))?
**A.** 8 µg/mL (≈ 5.55 µM)

**Q.** What about the “MIC Enterococcus faecalis (ATCC 29212)” value ([1]; strain ATCC 29212) of the same compound?
**A.** 32 µg/mL (≈ 22.2 µM)

**Q.** And the “MIC Enterococcus faecalis (GC 2242)” value ([1]; strain GC 2242)?
**A.** 16 µg/mL (≈ 11.1 µM)

**Q.** And the “MIC Enterococcus faecium (GC 2243)” value ([1]; strain GC 2243)?
**A.** 32 µg/mL (≈ 22.2 µM)

**Q.** What about the “MIC Enterococcus faecalis (GC 2691)” value ([1]; strain GC 2691) of the same compound?
**A.** 32 µg/mL (≈ 22.2 µM)

**Q.** What about the “MIC Enterococcus faecalis (GC 3059)” value ([1]; strain GC 3059) of the same compound?
**A.** 32 µg/mL (≈ 22.2 µM)

**Q.** What about the “MIC Enterococcus faecalis (GC 4552)” value ([1]; strain GC 4552) of the same compound?
**A.** 32 µg/mL (≈ 22.2 µM)

**Q.** What about the “MIC Enterococcus faecalis (GC 4553)” value ([1]; strain GC 4553) of the same compound?
**A.** 32 µg/mL (≈ 22.2 µM)

**Q.** And the “MIC Enterococcus faecalis (GC 4554)” value ([1]; strain GC 4554)?
**A.** 32 µg/mL (≈ 22.2 µM)

**Q.** What about the “MIC Enterococcus faecium (GC 4556)” value ([1]; strain GC 4556) of the same compound?
**A.** 32 µg/mL (≈ 22.2 µM)

**Q.** What about the “MIC Enterococcus faecium (GC 4557)” value ([1]; strain GC 4557) of the same compound?
**A.** 8 µg/mL (≈ 5.55 µM)

**Q.** What about the “MIC Enterococcus avium (GC 4558)” value ([1]; strain GC 4558) of the same compound?
**A.** 32 µg/mL (≈ 22.2 µM)

**Q.** What about the “MIC Enterococcus faecalis (GC 6189)” value ([1]; strain GC 6189) of the same compound?
**A.** 64 µg/mL (≈ 44.4 µM)

**Q.** And the “MIC Streptococcus agalactiae (GC 4564)” value ([2]; Streptococcus agalactiae (GC 4564))?
**A.** 4 µg/mL (≈ 2.77 µM)

**Q.** And the “MIC Streptococcus pneumoniae (ATCC 6301)” value ([2]; Streptococcus pneumoniae (ATCC 6301))?
**A.** 1 µg/mL (≈ 0.693 µM)

**Q.** And the “MIC Streptococcus pneumoniae (GC 1894)” value ([2]; Streptococcus pneumoniae (GC 1894))?
**A.** 0.5 µg/mL (≈ 0.347 µM)

**Q.** And the “MIC Streptococcus pneumoniae (GC 4565)” value ([2]; Streptococcus pneumoniae (GC 4565))?
**A.** 1 µg/mL (≈ 0.693 µM)

**Q.** What about the “MIC Streptococcus pyogenes (GC 4563)” value ([2]; Streptococcus pyogenes (GC 4563)) of the same compound?
**A.** 2 µg/mL (≈ 1.39 µM)

**Q.** And the “MIC Streptococcus pneumoniae (ATCC 6301)” value ([2]; strain ATCC 6301)?
**A.** 1 µg/mL (≈ 0.693 µM)

**Q.** What about the “MIC Streptococcus pneumoniae (GC 1894)” value ([2]; strain GC 1894) of the same compound?
**A.** 0.5 µg/mL (≈ 0.347 µM)

**Q.** What about the “MIC Streptococcus pyogenes (GC 4563)” value ([2]; strain GC 4563) of the same compound?
**A.** 2 µg/mL (≈ 1.39 µM)

**Q.** What about the “MIC Streptococcus agalactiae (GC 4564)” value ([2]; strain GC 4564) of the same compound?
**A.** 4 µg/mL (≈ 2.77 µM)

**Q.** What about the “MIC Streptococcus pneumoniae (GC 4565)” value ([2]; strain GC 4565) of the same compound?
**A.** 1 µg/mL (≈ 0.693 µM)

**Q.** And the “MIC Staphylococcus aureus (GC 1131)” value ([3]; inoculum 5×10^5 CFU/mL)?
**A.** 8 µg/mL (≈ 5.55 µM)

**Q.** What about the “MIC Staphylococcus aureus (ATCC 29213)” value ([3]; strain ATCC 29213) of the same compound?
**A.** 8 µg/mL (≈ 5.55 µM)

**Q.** And the “MIC Staphylococcus aureus (GC 1131)” value [3]?
**A.** 8 µg/mL (≈ 5.55 µM)

**Q.** And the “MIC Staphylococcus aureus (GC 3051)” value ([3]; strain GC 3051)?
**A.** 8 µg/mL (≈ 5.55 µM)

**Q.** And the “MIC Staphylococcus aureus (GC 3053)” value ([3]; strain GC 3053)?
**A.** 16 µg/mL (≈ 11.1 µM)

**Q.** What about the “MIC Staphylococcus aureus (GC 4541)” value ([3]; strain GC 4541) of the same compound?
**A.** 4 µg/mL (≈ 2.77 µM)

**Q.** And the “MIC Staphylococcus aureus (GC 4542)” value ([3]; strain GC 4542)?
**A.** 8 µg/mL (≈ 5.55 µM)

**Q.** What about the “MIC Staphylococcus aureus-SMITH (GC 4543)” value ([3]; strain GC 4543) of the same compound?
**A.** 8 µg/mL (≈ 5.55 µM)

**Q.** What about the “MIC Staphylococcus aureus (GC 4544)” value ([3]; strain GC 4544) of the same compound?
**A.** 8 µg/mL (≈ 5.55 µM)

**Q.** What about the “MIC Staphylococcus aureus (GC 4545)” value ([3]; strain GC 4545) of the same compound?
**A.** 4 µg/mL (≈ 2.77 µM)

**Q.** And the “MIC Staphylococcus haemolyticus (GC 4546)” value ([3]; strain GC 4546)?
**A.** 2 µg/mL (≈ 1.39 µM)

**Q.** What about the “MIC Coagulase Negative Staphylococcus (GC 4547)” value ([3]; strain GC 4547) of the same compound?
**A.** 4 µg/mL (≈ 2.77 µM)

**Q.** And the “MIC Coagulase Negative Staphylococcus (GC 4548)” value ([3]; strain GC 4548)?
**A.** 4 µg/mL (≈ 2.77 µM)

**Q.** What about the “MIC Coagulase Negative Staphylococcus (GC 4549)” value ([3]; strain GC 4549) of the same compound?
**A.** 2 µg/mL (≈ 1.39 µM)

**Q.** What about the “MIC Coagulase Negative Staphylococcus (GC 4551)” value ([3]; strain GC 4551) of the same compound?
**A.** 8 µg/mL (≈ 5.55 µM)

**Q.** And the “MIC Coagulase Negative Staphylococcus (GC 6257)” value ([3]; strain GC 6257)?
**A.** 2 µg/mL (≈ 1.39 µM)

**Q.** And the “MIC Staphylococcus aureus-SMITH (GC 4543)” value ([3]; strain SMITH GC 4543)?
**A.** 8 µg/mL (≈ 5.55 µM)

**Q.** And the “MIC Escherichia coli (ATCC 25922)” value ([4]; strain ATCC 25922, 18 hours at 35° C.)?
**A.** >64 µg/mL

**Q.** What about the “MIC Escherichia coli (GC 4559)” value ([4]; strain GC 4559, 18 hours at 35° C.) of the same compound?
**A.** >64 µg/mL

**Q.** What about the “MIC Escherichia coli (GC 4560)” value ([4]; strain GC 4560, 18 hours at 35° C.) of the same compound?
**A.** 2 µg/mL (≈ 1.39 µM)
